# Assay results as given in US8802712B2, “Pyrazoloquinolines” (Merck Patent GmbH, priority 2010, dated 2014).
# Structures can show the parent of a compound that is named as a salt.
# Biological target: DNA-PK (Homo sapiens (Human), UniProt P78527)
# Assay: DNA-PK/Biochemical Assay (FlashPlate kinase assay)
# Conditions: 5 μM ATP, 90 min, room temperature
# Procedure: The kinase assay was carried out in streptavidin-coated […] microtitre FlashPlates®. To this end, 1.5 μg of the DNA-PK/protein complex and 100 ng of biotinylated substrate, such as, for example, […] biotin-NH2 (“biotin-DNA-PK peptide”), in a total volume of 36.5 μl (34.25 mM HEPES/KOH, 7.85 mM Tris-HCl, 68.5 mM KCl, 5 μM ATP, 6.85 mM MgCl2, 0.5 mM EDTA, 0.14 mM EGTA, 0.69 mM DTT, pH 7.4), were incubated at room temperature for 90 min with 500 ng of DNA from calf thymus, 0.1 μCi of 33P-ATP and 1.8% of DMSO per well with or without the test compound. The reaction was stopped using 50 μl/well of 200 mM EDTA. After incubation for a further 30 min at room temperature, the liquid was removed. Each well was washed three times with 100 μl of 0.9% sodium chloride solution. A non-specific reaction (blank value) was determined using 10 μM of a proprietary kinase inhibitor. The radioactivity measurement was carried out by means of a TopCount. IC50 values were calculated in RS1. • Literature: Kashishian et al. (2003) Molecular Cancer Therapeutics 1257.
row,Structure (SMILES),IC50
1,"COc1cc2ncc3c(c(-c4ccc(C#N)cc4)nn3C)c2cc1O[C@@H](C(N)=O)c1ccc(F)cc1 [Compound 9, (R)-2-[1-(4-Cyanophenyl)-7-methoxy-3-methyl-3H-pyrazolo[3,4-c]quinolin-8-yloxy]-2-(4-fluorophenyl)-acetamide]",< 100 nM
2,"COc1cc2ncc3c(c(-c4ccc(C#N)cc4)nn3C)c2cc1O[C@H](C(N)=O)c1ccc(F)cc1 [Compound 10, (S)-2-[1-(4-Cyanophenyl)-7-methoxy-3-methyl-3H-pyrazolo[3,4-c]quinolin-8-yloxy]-2-(4-fluorophenyl)-acetamide]",< 100 nM
3,"COC(=O)C(Oc1cc2c(cc1OC)ncc1c2c(-c2ccc(C#N)cc2)nn1C)c1ccc(F)cc1 (centres unmarked) [Compound 18, Methyl 1-(4-cyanophenyl)-7-methoxy-3-methyl-3H-pyrazolo[3,4-c]quinolin-8-yloxy]-(4-fluorophenyl)-acetate]",100 to 500 nM
4,"COc1cc2ncc3c(c(-c4ccc(C#N)cc4)nn3C)c2cc1OC(C(=O)O)c1ccc(F)cc1 (centres unmarked) [Compound 19, [1-(4-Cyanophenyl)-7-methoxy-3-methyl-3H-pyrazolo[3,4-c]quinolin-8-yloxy]-(4-fluorophenyl)acetic acid]",< 100 nM
5,"COc1cc2ncc3c(c(-c4ccc(C#N)cc4)nn3C)c2cc1OC(C(=O)O)c1ccccc1 (centres unmarked) [Compound 20, [1-(4-Cyanophenyl)-7-methoxy-3-methyl-3H-pyrazolo[3,4-c]quinolin-8-yloxy]phenylacetic acid]",< 100 nM
6,"COc1cc2ncc3c(c(-c4ccc(C#N)cc4)nn3C)c2cc1OC(C(=O)O)c1cccs1 (centres unmarked) [Compound 21, [1-(4-Cyanophenyl)-7-methoxy-3-methyl-3H-pyrazolo[3,4-c]quinolin-8-yloxy]thiophen-2-ylacetic acid]",< 100 nM
7,"COc1cc2ncc3c(c(-c4ccc(C#N)cc4)nn3C)c2cc1OC(C)(C(=O)O)c1ccccc1 (centres unmarked) [Compound 22, 2-[1-(4-Cyanophenyl)-7-methoxy-3-methyl-3H-pyrazolo[3,4-c]quinolin-8-yloxy]-2-phenylpropanoic acid]",> 500 nM
8,"COc1cc2ncc3c(c(-c4ccc(C#N)cc4F)nn3C)c2cc1OC(C(N)=O)c1ccc(F)cc1 (centres unmarked) [Compound 23, 2-[1-(4-Cyano-2-fluoro-phenyl)-7-methoxy-3-methyl-3H-pyrazolo[3,4-c]quinolin-8-yloxy]-2-(4-fluorophenyl)-acetamide]",< 100 nM
9,"COc1cc2ncc3c(c(-c4ccc(C#N)cc4)nn3C)c2cc1OP(=O)(O)c1ccccc1 [Compound 25, 1-(4-Cyanophenyl)-7-methoxy-3-methyl-3H-pyrazolo[3,4-c]quinolin-8-yl phenylphosphonate]",100 to 500 nM
10,"COc1cc2ncc3c(c(-c4ccc(C#N)cc4)nn3C)c2cc1OCc1ccc(CO)cc1 [Compound 27, 4-[8-(4-Hydroxymethyl-benzyloxy)-7-methoxy-3-methyl-3H-pyrazolo[3,4-c]-quinolin-1-yl]benzonitrile]",< 100 nM
11,"COc1cc2ncc3c(c(-c4ccc(C#N)cc4)nn3C)c2cc1OCc1cccc(CN2CCOCC2)c1 [Compound 28, 4-[7-Methoxy-3-methyl-8-(3-morpholin-4-ylmethyl-benzyloxy)-3H-pyrazolo-[3,4-c]quinolin-1-yl]-benzonitrile]",100 to 500 nM
12,"COc1cc2ncc3c(c(-c4ccc(C#N)cc4)nn3C)c2cc1OCc1ccc(-n2cccn2)nc1 [Compound 29, 4-[7-Methoxy-3-methyl-8-(6-pyrazol-1-ylpyridin-3-ylmethoxy)-3H-pyrazolo-[3,4-c]quinolin-1-yl]-benzonitrile]",> 500 nM
13,"COc1cc2ncc3c(c(-c4ccc(C#N)cc4)nn3C)c2cc1OCc1cnc2[nH]ccc2c1 [Compound 30, 4-[7-Methoxy-3-methyl-8-(1H-pyrrolo[2,3-b]pyridin-5-ylmethoxy)-3H-pyrazolo-[3,4-c]quinolin-1-yl]-benzonitrile]",100 to 500 nM
14,"COc1cc2ncc3c(c(-c4ccc(C#N)cc4)nn3C)c2cc1OCc1ccc(-n2cncn2)cc1 [Compound 31, 4-[7-Methoxy-3-methyl-8-(4-1,2,4-triazol-1-ylbenzyloxy)-3H-pyrazolo[3,4-c]quinolin-1-yl]benzonitrile]",> 500 nM
15,"COc1cc2ncc3c(c(-c4ccc(C#N)cc4)nn3C)c2cc1OCc1cc2ccccc2s1 [Compound 37, 4-[8-(Benzo[b]thiophen-2-ylmethoxy)-7-methoxy-3-methyl-3H-pyrazolo[3,4-c]-quinolin-1-yl]benzonitrile]",> 500 nM

# Now from value to compound:
row,IC50,Structure (SMILES)
1,< 100 nM,"COc1cc2ncc3[nH]nc(-c4ccc(C#N)cc4)c3c2cc1OC [Compound 1, 4-(7,8-Dimethoxy-3H-pyrazolo[3,4-c]quinolin-1-yl)benzonitrile]"
2,< 100 nM,"COc1cc2ncc3c(c(-c4ccc(C#N)cc4)nn3C)c2cc1OC [Compound 2, 4-(7,8-Dimethoxy-3-methyl-3H-pyrazolo-[3,4-c]quinolin-1-yl)-benzonitrile]"
3,< 100 nM,COc1cc2ncc3c(c(-c4ccc(C#N)c(Br)c4)nn3C)c2cc1OC [Compound 3]
4,< 100 nM,"COc1cc2ncc3c(c(-c4ccc(C#N)cc4)nn3C)c2cc1O [Compound 5, 4-(8-Hydroxy-7-methoxy-3-methyl-3H-pyrazolo-[3,4-c]quinolin-1-yl)-benzonitrile]"
5,< 100 nM,"COc1cc2ncc3c(c(-c4ccc(C#N)cc4F)nn3C)c2cc1O [Compound 6, 3-Fluoro-4-(8-hydroxy-7-methoxy-3-methyl-3H-pyrazolo[3,4-c]quinolin-1-yl)benzonitrile]"
6,< 100 nM,"COc1cc2ncc3[nH]nc(-c4ccc(C#N)c(Cl)c4)c3c2cc1OC [Compound 7, 2-Chloro-4-(7,8-dimethoxy-3H-pyrazolo-[3,4-c]quinolin-1-yl)-benzonitrile]"
7,< 100 nM,"COc1cc2ncc3c(c(-c4ccc(C#N)cc4)nn3C)c2cc1OCc1ccncc1 [Compound 11, 4-[7-Methoxy-3-methyl-8-(pyridin-4-ylmethoxy)-3H-pyrazolo[3,4-c]quinolin-1-yl]-benzonitrile]"
8,< 100 nM,"COc1cc2ncc3c(c(-c4ccc(C#N)cc4)nn3C)c2cc1OCc1cccnc1 [Compound 12, 4-[7-Methoxy-3-methyl-8-(pyridin-3-ylmethoxy)-3H-pyrazolo[3,4-c]quinolin-1-yl]-benzonitrile]"
9,> 500 nM,"COc1cc2ncc3c(c(-c4ccc(C#N)cc4)nn3C)c2cc1OCc1ccccn1 [Compound 13, 4-[7-Methoxy-3-methyl-8-(pyridin-2-ylmethoxy)-3H-pyrazolo[3,4-c]quinolin-1-yl]-benzonitrile]"
10,100 to 500 nM,"COc1cc2ncc3c(c(-c4ccc(C#N)cc4)nn3C)c2cc1OCc1ccccc1C#N [Compound 14, 4-[8-(2-Cyanobenzyloxy)-7-methoxy-3-methyl-8-3H-pyrazolo[3,4-c]quinolin-1-yl]-benzonitrile]"
11,< 100 nM,"COc1cc2ncc3c(c(-c4ccc(C#N)cc4)nn3C)c2cc1OCc1ccc(F)cc1 [Compound 15, 4-[8-(4-Fluorobenzyloxy)-7-methoxy-3-methyl-3H-pyrazolo[3,4-c]quinolin-1-yl]-benzonitrile]"
12,< 100 nM,"COc1cc2ncc3c(c(-c4ccc(C#N)cc4)nn3C)c2cc1OC(F)F [Compound 16, 4-(8-Difluoromethoxy-7-methoxy-3-methyl-3H-pyrazolo[3,4-c]quinolin-1-yl)-benzonitrile]"
13,100 to 500 nM,"COc1cc2ncc3c(c(-c4ccc(C#N)cc4)nn3C)c2cc1OC(F)(F)c1ccccc1 [Compound 17, 4-[8-(Difluorophenyl-methoxy)-7-methoxy-3-methyl-3H-pyrazolo[3,4-c]-quinolin-1-yl]benzonitrile]"
14,100 to 500 nM,"COc1cc2ncc3c(c(-c4ccc(C#N)cc4)nn3C)c2cc1OS(=O)(=O)c1ccc(C)cc1 [Compound 24, 1-(4-Cyanophenyl)-7-methoxy-3-methyl-3H-pyrazolo[3,4-c]quinolin-8-yl toluene-4-sulfonate]"
15,> 500 nM,"COc1cc2c(cc1OC(F)F)ncc1c2c(-c2ccc(C#N)cc2)nn1C [Compound 26, 4-(7-Difluoromethoxy-8-methoxy-3-methyl-3H-pyrazolo[3,4-c]quinolin-1-yl)-benzonitrile]"
16,100 to 500 nM,"COc1cc2ncc3c(c(-c4ccc(C#N)cc4)nn3C)c2cc1OCc1cccc(CN)c1 [Compound 32, 4-[8-(3-Aminomethyl-benzyloxy)-7-methoxy-3-methyl-3H-pyrazolo[3,4-c]-quinolin-1-yl]benzonitrile hydrochloride]"
17,< 100 nM,"COc1cc2ncc3c(c(-c4ccc(C#N)cc4)nn3C)c2cc1OCc1ccnc(N)c1 [Compound 33, 4-[8-(2-Aminopyridin-4-ylmethoxy)-7-methoxy-3-methyl-3H-pyrazolo[3,4-c]-quinolin-1-yl]benzonitrile]"
18,< 100 nM,"COc1cc2ncc3c(c(-c4ccc(C#N)cc4)nn3C)c2cc1OCc1cccs1 [Compound 34, 4-[7-Methoxy-3-methyl-8-(thiophen-2-ylmethoxy)-3H-pyrazolo[3,4-c]quinolin-1-yl]-benzonitrile]"
19,< 100 nM,"COc1cc2ncc3c(c(-c4ccc(C#N)cc4)nn3C)c2cc1OCc1ccsc1 [Compound 35, 4-[7-Methoxy-3-methyl-8-(thiophen-3-ylmethoxy)-3H-pyrazolo[3,4-c]quinolin-1-yl]-benzonitrile]"
20,< 100 nM,"COc1cc2ncc3c(c(-c4ccc(C#N)cc4)nn3C)c2cc1OCc1cc(Br)cs1 [Compound 36, 4-[8-(4-Bromothiophen-2-ylmethoxy)-7-methoxy-3-methyl-3H-pyrazolo[3,4-c]-quinolin-1-yl]benzonitrile]"
